According to patent US20070092467A1, “Oxyacetamide compounds useful for stimulating or inducing the growth and/or retarding the loss of keratin fibers” (L'OREAL, priority 2004, published 2007):

The compounds below were run against T1, type-1 15-PGDH (Homo sapiens, UniProt P15428) (assay: Test on type-1 15-PGDH (spectrophotometric, 340 nm, maximum reaction rate)). Conditions: IC50dh; 37° C., pH 7.4; read-out: Inhibition of 15-PGDH IC50.
T1 construct: made in house
T1 sequence (P15428 1-266): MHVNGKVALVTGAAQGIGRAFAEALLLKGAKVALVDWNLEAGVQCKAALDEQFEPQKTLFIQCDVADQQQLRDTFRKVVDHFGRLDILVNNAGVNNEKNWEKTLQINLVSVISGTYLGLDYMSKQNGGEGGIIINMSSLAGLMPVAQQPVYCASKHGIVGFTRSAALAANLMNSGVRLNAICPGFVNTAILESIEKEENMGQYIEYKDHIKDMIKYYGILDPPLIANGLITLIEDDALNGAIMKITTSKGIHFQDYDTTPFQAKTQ
Assay type: biochemical
Method: 1) Test on type-1 15-PGDH:
(§1) For the purposes of the test, this suspension is thawed and stored in ice.
(§2) 0.965 ml of this buffer (brought to 37° C. beforehand) is introduced into the cuvette of a spectrophotometer (Perkin-Elmer, Lambda 2) thermostatically maintained at 37° C., the measuring wavelength of which is set at 340 nm. 0.035 ml of enzymatic suspension at 37° C. is introduced into the cuvette concomitantly with the recording (corresponding to an increase in the optical density at 340 nm). The maximum reaction rate is recorded.

IC50	Structure (SMILES)
16 µM	O=C(COc1cccc(Cl)c1)NCc1ccco1 [Compound 23]

Same assay, conditions: compound at 50 μM

inhibition at 50 µM	Structure (SMILES)
63%	O=C(COC1CCCCC1)NCc1ccccc1 [Compound 21]
55%	O=C(COc1ccccc1)NCc1ccccc1 [Compound 24]
30%	O=C(COc1ccc(Cl)cc1)NCc1ccccc1 [Compound 26]
50%	O=C(COc1cccc(Cl)c1)NCc1ccccc1 [Compound 25]
47%	CCCCCCOCC(=O)NCc1ccccc1 [Compound 22]
80%	O=C(COc1cccc(Cl)c1)NCc1ccco1 [Compound 23]

Same assay, conditions: compound at 100 μM; 37° C., pH 7.4, PGE2 50 μM, β-NAD 1.5 mM

Structure (SMILES)	inhibition at 100 µM
COc1cc(C(C)=O)ccc1OCC(=O)Nc1ccccc1C(F)(F)F [Compound 13, 2-(4-Acetyl-2-methoxy-phenoxy)-N-(2-trifluoromethyl-phenyl) acetamide]	126%
O=C(COc1cccc2cccnc12)Nc1ccccc1C(F)(F)F [Compound 3, 2-(quinolin-8-yloxy)-N-(2-trifluoromethylphenyl)acetamide]	128%
O=C(COCc1ccccc1)NC1CCCC1 [Compound 16, 2-Benzyloxy-N-cyclopentylacetamide]	76%
Cc1nc2cc(OCC(=O)Nc3ccc(OC(F)(F)F)cc3)ccc2s1 [Compound 5, 2-(2-Methyl-benzothiazol-5-yloxy)-N-(4-trifluoromethoxy-phenyl) acetamide]	53%
C[Si](C)(C)CNC(=O)COc1ccccc1 [Compound 19, 2-Phenoxy-N-trimethylsilanylmethyl-acetamide]	95%
Cc1ccc(CNC(=O)COCc2ccccc2)o1 [Compound 15, 2-Benzyloxy-N-(5-methyl-furan-2-ylmethyl)-acetamide]	51%
CSCCNC(=O)COc1ccccc1 [Compound 20]	85%
O=C(COc1cccc2cccnc12)Nc1ccccc1Cl [Compound 2]	115%
C[Si](C)(C)CNC(=O)COCc1ccccc1 [Compound 18, 2-Benzyloxy-N-trimethylsilanylmethyl-acetamide]	88%
O=C(COc1ccc2c(c1)C(=O)c1ccccc1-2)Nc1cccc(C(F)(F)F)c1 [Compound 7, 2-(9-Oxo-9H-fluoren-2-yloxy)-N-(3-trifluoromethyl-phenyl) acetamide]	61%
O=C(COc1ccc(-n2ccnc2)cc1)Nc1ccccc1Cl [Compound 6, N-(2-Chloro-phenyl)-2-(4-imidazol-1-yl-phenoxy)-acetamide]	54%
O=C(COc1ccc(-n2ccnc2)cc1)Nc1ccccc1C(F)(F)F [Compound 12, 2-(4-imidazol-1-yl-phenoxy)-N-(2-trifluoromethyl-phenyl) acetamide]	125%
Cc1cccc(C)c1NC(=O)COc1cccc2cccnc12 [Compound 1, N-(2,6-dimethylphenyl)-2-(quinolin-8-yloxy)acetamide]	49%
O=C(COc1ccc2oc3ccccc3c2c1)Nc1ccc(OC(F)(F)F)cc1 [Compound 11, 2-(Dibenzofuran-2-yloxy)-N-(4-trifluoromethoxy-phenyl) acetamide]	74%
O=C(COCc1ccccc1)NC[C@@H]1CCCO1 (stereo in doubt) [Compound 14, 2-benzyloxy-N-(tetrahydrofuran-2-ylmethyl)acetamide]	50%
CC(C)(C)c1ccc(OCC(=O)NC[Si](C)(C)C)cc1 [Compound 17, 2-(4-tert-Butyl-phenoxy)-N-trimethylsilanylmethyl-acetamide]	50%
CCOC(=O)c1ccc(NC(=O)COc2ccc(C(C)=O)cc2)cc1 [Compound 4, 4-[2-(4-Acetylphenoxy)acetylamino]benzoic acid ethyl]	49%
O=C(COc1ccc(-n2cccc2)cc1)Nc1ccccc1C(F)(F)F [Compound 10]	71%
O=C(COc1ccc2c(c1)C(=O)c1ccccc1-2)Nc1ccc(C(F)(F)F)cc1 [Compound 8, 2-(9-Oxo-9H-fluoren-2-yloxy)-N-(4-trifluoromethyl-phenyl) acetamide]	65%
CCCCCCc1ccc(NC(=O)COc2ccc3sc(C)nc3c2)cc1 [Compound 9, N-(4-Hexyl-phenyl)-2-(2-methyl-benzothiazol-5-yloxy) acetamide]	69%

More lines, now with the values ahead:

inhibition at 100 µM	Structure (SMILES)
54%	N#Cc1ccc(-c2ccc(OCC(=O)Nc3cccc([N+](=O)[O-])c3)cc2)cc1 [Compound 28]
61%	O=C(COc1ccccc1)NCc1ccccc1 [Compound 33]
54%	O=C(COc1ccccc1)NC[C@@H]1CCCO1 [Compound 29]
48%	O=C(COCc1ccccc1)NCc1ccccc1 [Compound 27]
57%	CCCCCCNC(=O)COc1ccccc1 [Compound 31]
70%	O=C(COc1ccc(-c2ccccc2)cc1)Nc1ccccc1C(F)(F)F [Compound 35]
59%	CC(=O)c1ccc(OCC(=O)Nc2ccccc2C(F)(F)F)cc1 [Compound 32]
69%	O=C(COc1cccc2cccnc12)Nc1cccc([N+](=O)[O-])c1 [Compound 34]

What follows are compounds tested against T2, PGF synthase (Homo sapiens, UniProt P42330) (assay: Test on PGF synthase (spectrophotometric, 340 nm, maximum reaction rate)). Conditions: IC50fs; 37° C., pH 6.5; read-out: Inhibition of PGFS IC50.
T2 construct: made in house
T2 sequence (P42330 1-323): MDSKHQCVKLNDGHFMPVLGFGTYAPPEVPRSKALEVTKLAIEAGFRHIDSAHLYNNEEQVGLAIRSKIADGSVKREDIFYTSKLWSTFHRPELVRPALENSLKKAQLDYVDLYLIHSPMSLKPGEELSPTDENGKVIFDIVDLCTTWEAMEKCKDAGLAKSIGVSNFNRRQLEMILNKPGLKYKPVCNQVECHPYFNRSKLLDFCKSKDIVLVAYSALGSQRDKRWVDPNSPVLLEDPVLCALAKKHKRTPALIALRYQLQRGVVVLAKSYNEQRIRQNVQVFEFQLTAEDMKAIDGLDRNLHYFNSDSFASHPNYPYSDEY
Assay type: biochemical
Method: as §1
as §2, with “0.950 mL” for “0.965 ml”, “0.05 mL” for “0.035 ml”, “a reduction” for “an increase”

IC50	Structure (SMILES)
> 50 µM	O=C(COc1cccc(Cl)c1)NCc1ccco1 [Compound 23]

Same assay, conditions: compound at 50 μM; read-out: Inhibition of PGFS % inhibition at 50 μM

inhibition at 50 µM	Structure (SMILES)
24%	O=C(COC1CCCCC1)NCc1ccccc1 [Compound 21]
4%	O=C(COc1ccccc1)NCc1ccccc1 [Compound 24]
25%	O=C(COc1cccc(Cl)c1)NCc1ccco1 [Compound 23]
